Data from the supplement of paper PMC10627819.

Key:
S. pneumoniae D39V [1] = test: fitness (endpoint OD595 vs no drug) (fraction); higher = more growth
Method in brief: (§1)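 With the first reading as background, OD595 was measured every 30 min for 14 h in 384-well plates kept at 37 °C and inoculated at OD595 0.01. TSB, LB Lennox or CY was the medium. Fitness is the optical density at the transition into stationary phase divided by the robust mean of no-drug control wells, with a cap of 1.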

S. aureus DSM 20231 [2] = test: as above
Method in brief: as §1

B. subtilis 168 [3] = test: Bliss interaction score (quartile over a dose matrix) (fitness difference); higher = more antagonism (negative = synergy)
Method in brief: (§2)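 Each plate was normalised to the robust mean of its own no-drug wells, using OD595 at entry into stationary phase, with values capped at 1. This normalised growth is the fitness value. The Bliss score is the difference between observed and product-expected fitness, with single-drug fitness inferred from the combination data and quartiles taken over technical, biological and donor/recipient replicates.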

S. pneumoniae D39V [4] = test: as above
Method in brief: as §2

S. aureus DSM 20231 [5] = test: as above
Method in brief: as §2

S. aureus Newman = test: as above
Method in brief: as §2

B. subtilis 168 [6] = test: fitness (endpoint OD595 vs no drug) (fraction); higher = more growth
Method in brief: as §1
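Wherever Bliss interaction score (quartile over a dose matrix) is given: first quartile when negative (synergy) and third quartile when positive (antagonism).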

CCC[C@@H]1C[C@@H](C(=O)N[C@@H]([C@H]2O[C@H](SC)[C@H](O)[C@@H](O)[C@H]2O)[C@@H](C)O)N(C)C1 [Lincomycin] + CN[C@H](CC(C)C)C(=O)N[C@H]1C(=O)N[C@@H](CC(N)=O)C(=O)N[C@H]2C(=O)N[C@H]3C(=O)N[C@H](C(=O)N[C@H](C(=O)O)c4cc(O)cc(O)c4-c4cc3ccc4O)[C@H](O)c3ccc(c(Cl)c3)Oc3cc2cc(c3O[C@@H]2O[C@H](CO)[C@@H](O)[C@H](O)[C@H]2O[C@H]2C[C@](C)(N)[C@H](O)[C@H](C)O2)Oc2ccc(cc2Cl)[C@H]1O [Vancomycin]
Settings	fitness
S. aureus DSM 20231 [2], first compound 0.1 µg/mL, partner 0.1875 µg/mL	0.805
S. aureus DSM 20231 [2], first compound 0.1 µg/mL, partner 0.375 µg/mL	0.873
S. aureus DSM 20231 [2], first compound 0.1 µg/mL, partner 0.75 µg/mL	0.922
S. aureus DSM 20231 [2], first compound 0.2 µg/mL, partner 0.1875 µg/mL	0.679
S. aureus DSM 20231 [2], first compound 0.2 µg/mL, partner 0.375 µg/mL	0.701
S. aureus DSM 20231 [2], first compound 0.2 µg/mL, partner 0.75 µg/mL	0.745
S. aureus DSM 20231 [2], first compound 0.4 µg/mL, partner 0.1875 µg/mL	0.346
S. aureus DSM 20231 [2], first compound 0.4 µg/mL, partner 0.375 µg/mL	0.336
S. aureus DSM 20231 [2], first compound 0.4 µg/mL, partner 0.75 µg/mL	0.371
S. pneumoniae D39V [1], first compound 0.2 µg/mL, partner 0.03125 µg/mL	0.706
S. pneumoniae D39V [1], first compound 0.2 µg/mL, partner 0.0625 µg/mL	0.695
S. pneumoniae D39V [1], first compound 0.2 µg/mL, partner 0.125 µg/mL	0.489
S. pneumoniae D39V [1], first compound 0.215 µg/mL, partner 0.125 µg/mL	0.845
S. pneumoniae D39V [1], first compound 0.215 µg/mL, partner 0.25 µg/mL	0.782
S. pneumoniae D39V [1], first compound 0.4 µg/mL, partner 0.03125 µg/mL	0.61
S. pneumoniae D39V [1], first compound 0.4 µg/mL, partner 0.0625 µg/mL	0.604
S. pneumoniae D39V [1], first compound 0.43 µg/mL, partner 0.125 µg/mL	0.792
S. pneumoniae D39V [1], first compound 0.43 µg/mL, partner 0.25 µg/mL	0.699
S. pneumoniae D39V [1], first compound 0.43 µg/mL, partner 0.5 µg/mL	0.248
S. pneumoniae D39V [1], first compound 0.8 µg/mL, partner 0.03125 µg/mL	0.279
S. pneumoniae D39V [1], first compound 0.8 µg/mL, partner 0.125 µg/mL	0.191
S. pneumoniae D39V [1], first compound 0.86 µg/mL, partner 0.125 µg/mL	0.356
S. pneumoniae D39V [1], first compound 0.86 µg/mL, partner 0.25 µg/mL	0.311
S. pneumoniae D39V [1], first compound 0.86 µg/mL, partner 0.5 µg/mL	0.0793

Settings	Bliss interaction score
B. subtilis 168 [3]	0.0223
S. aureus DSM 20231 [5]	-0.0567
S. aureus Newman	0.0733
S. pneumoniae D39V [4]	0.117

CCC[C@@H]1C[C@@H](C(=O)N[C@@H]([C@H]2O[C@H](SC)[C@H](O)[C@@H](O)[C@H]2O)[C@@H](C)O)N(C)C1 [Lincomycin] + COc1cc(Cc2cnc(N)nc2N)cc(OC)c1OC [Trimethoprim]
fitness, B. subtilis 168 [6], one replicate
Settings	partner 0.1 µg/mL	partner 0.125 µg/mL	partner 0.2 µg/mL	partner 0.25 µg/mL	partner 0.4 µg/mL	partner 1 µg/mL	partner 2 µg/mL
first compound 0.1 µg/mL	–	0.539	–	0.582	–	0.451	0.343
first compound 0.2 µg/mL	–	0.633	–	0.619	–	0.319	0.174
first compound 0.4 µg/mL	0.581	–	0.318	–	0.215	0.069	0.0635
first compound 0.8 µg/mL	0.382	0.142	0.169	–	0.121	–	–
first compound 1.6 µg/mL	0.112	0.0455	0.0673	–	0.0597	–	–

fitness
Settings	first compound 0.1 µg/mL	first compound 0.2 µg/mL	first compound 0.4 µg/mL	first compound 0.8 µg/mL	first compound 1.6 µg/mL
B. subtilis 168 [6], partner 0.125 µg/mL	–	–	0.487	–	–
B. subtilis 168 [6], partner 0.25 µg/mL	–	–	0.465	0.263	0.0775
B. subtilis 168 [6], partner 0.5 µg/mL	0.412	0.368	0.282	0.155	0.0565
S. aureus DSM 20231 [2], partner 0.125 µg/mL	0.83	0.556	0.227	–	–
S. aureus DSM 20231 [2], partner 0.25 µg/mL	0.69	0.596	–	–	–
S. aureus DSM 20231 [2], partner 0.5 µg/mL	0.49	0.536	0.173	–	–
S. aureus DSM 20231 [2], partner 1 µg/mL	0.0776	0.0724	0.0567	–	–

Settings	Bliss interaction score
B. subtilis 168 [3]	-0.231
S. aureus DSM 20231 [5]	0.222
S. aureus Newman	0.213
S. pneumoniae D39V [4]	-0.125

CCC[C@@H]1C[C@@H](C(=O)N[C@@H]([C@H]2O[C@H](SC)[C@H](O)[C@@H](O)[C@H]2O)[C@@H](C)O)N(C)C1 [Lincomycin] + Cn1nnc(-c2ccc(-c3ccc(N4C[C@H](CO)OC4=O)cc3F)cn2)n1 [Tedizolid]
fitness
Settings	partner 0.03125 µg/mL	partner 0.0625 µg/mL	partner 0.125 µg/mL	partner 0.25 µg/mL	partner 0.5 µg/mL
S. aureus DSM 20231 [2], first compound 0.1 µg/mL	–	0.806	0.683	0.364	–
S. aureus DSM 20231 [2], first compound 0.2 µg/mL	–	0.568	0.434	0.229	–
S. aureus DSM 20231 [2], first compound 0.4 µg/mL	–	0.27	0.182	0.115	–
S. pneumoniae D39V [1], first compound 0.2 µg/mL	0.732	0.796	0.665	–	–
S. pneumoniae D39V [1], first compound 0.215 µg/mL	–	–	0.754	0.731	0.345
S. pneumoniae D39V [1], first compound 0.4 µg/mL	0.647	0.716	0.611	–	–
S. pneumoniae D39V [1], first compound 0.43 µg/mL	–	–	0.661	0.629	0.277
S. pneumoniae D39V [1], first compound 0.8 µg/mL	0.549	0.67	0.57	–	–
S. pneumoniae D39V [1], first compound 0.86 µg/mL	–	–	0.209	0.162	0.0655

Settings	Bliss interaction score
B. subtilis 168 [3]	0.0845
S. aureus DSM 20231 [5]	-0.114
S. aureus Newman	-0.129
S. pneumoniae D39V [4]	0.138
